{
  "source": "patent US20170129932A1",
  "about": "“METHOD FOR PREPARING RECOMBINANT GLYCOPROTEIN HAVING HIGH SIALIC ACID CONTENT, THROUGH GLYCOSPHINGOLIPID SYNTHESIS CYCLE CONTROL” (KOREA ADVANCED INSTITUTE OF SCIENCE AND TECHNOLOGY, priority 2014, published 2017)",
  "key": {"EC2-1H9 cell line [1]": {"test_system": "EC2-1H9 cell line", "assay": "Glycosphingolipid (GSL) extraction and TLC in EC2-1H9 cells", "format": "cell-based, Chinese hamster", "details": "1 μM EtDO-P4, 48 hours, FIG. 1A", "procedure": "Glycosphingolipid (GSL) was sonicated for 30 minutes, followed by extraction using chloroform/methanol (C/M; 2:1, v/v) and isopropanol/hexane/water (IPA/H/W; 55:25:20 v/v/v). The GSL extract was dissolved in 0.1 M NaOH/MeOH, followed by culture for 2 hours at 40 °C. The extract was neutralized with 1 N HCl, to which hexane was added. The mixture stood for 5 minutes. The lower layer was evaporated in the N2 atmosphere, and the remaining part was dissolved in distilled water. The mixture was applied to […] (Varian, Palo Alto, Calif.). After washed with distilled water, total GSL was extracted with C/M, followed by evaporation. The residue dissolved in C/M was spotted on TLC plate (Silica Gel 60 F-254, Merck), followed by development in C/M/0.2% CaCl2 (55:40:10, v/v/v). The plate was then stained with 2% orcinol in 2 M H2SO4 by spraying."}, "EC2-1H9 cell line [2]": {"test_system": "EC2-1H9 cell line", "details": "WGA lectin blotting, EC2-1H9 cells, 1 μM EtDO-P4, FIGS. 1B and 1C", "protocol": "Particularly, in order to treat EtDO-P4, the cells (5×10^6) were cultured in 100-mm plates containing MEM-α supplemented with 10% dFBS for 24 hours. The cells were washed twice with serum-free MEM-α. Then, the cells were added with 1 μM EtDO-P4/MEM-α, followed by further culture for 48 hours."}},
  "data": [
    {"smiles": "CCCCCCCCCCCCCCCC(=O)N[C@H](CN1CCCC1)[C@H](O)c1ccc2c(c1)OCCO2", "note": "[EtDO-P4, D-threo-1-(3′,4′-ethylenedioxy)-phenyl-2-palmitoylamino-3-pyrrolidino-1-propanol]", "values": [
      {"measurement": "major GSLs, GM1, GM2, and GM3", "setting": "EC2-1H9 cell line [1]", "value": "reduced completely"},
      {"measurement": "increase of sialic acid content of purified rhEpo", "setting": "EC2-1H9 cell line [2]", "value": "up to 22%"}
    ]}
  ]
}
